ChEMBL document CHEMBL6071129, “Strategies that regulate Hippo signaling pathway for novel anticancer therapeutics” (Eur J Med Chem, 2024)
Blank lines part the entries; values can stand above or below the compound they belong to.

Tests used:
[1] = Half life in ICR mouse at 15 mg/kg, po measured upto 24 hrs by LC-MS/MS analysis; format: ADME, organism-based; conditions: in vivo
[2] = Antiproliferative activity against human MP41 cells incubated for 72 hrs by CCK8 assay; format: functional, cell-based; conditions: MP41, 72 h
[3] = Antitumor activity against human MP41 cells xenografted in BALB/c nu/nu mouse assessed as tumor growth inhibition at 30 mg/kg/day, ip administered for 21 days; format: functional; conditions: MP41, 504 h, time 21 day, read-out: TGI
[4] = Antiproliferative activity against human 92.1 cells incubated for 72 hrs by CCK8 assay; format: functional, cell-based; conditions: 92-1, 72 h
[5] = Inhibition of YAP (unknown origin) to TEAD4 (unknown origin) protein protein interaction; set-up: species or system Homo sapiens
[6] = target: Transcriptional enhancer factor TEF-3 (Homo sapiens, UniProt Q15561); assay: Inhibition of TEAD4 (unknown origin) autopalmitoylation
Sequence of Transcriptional enhancer factor TEF-3 (Q15561 whole entry): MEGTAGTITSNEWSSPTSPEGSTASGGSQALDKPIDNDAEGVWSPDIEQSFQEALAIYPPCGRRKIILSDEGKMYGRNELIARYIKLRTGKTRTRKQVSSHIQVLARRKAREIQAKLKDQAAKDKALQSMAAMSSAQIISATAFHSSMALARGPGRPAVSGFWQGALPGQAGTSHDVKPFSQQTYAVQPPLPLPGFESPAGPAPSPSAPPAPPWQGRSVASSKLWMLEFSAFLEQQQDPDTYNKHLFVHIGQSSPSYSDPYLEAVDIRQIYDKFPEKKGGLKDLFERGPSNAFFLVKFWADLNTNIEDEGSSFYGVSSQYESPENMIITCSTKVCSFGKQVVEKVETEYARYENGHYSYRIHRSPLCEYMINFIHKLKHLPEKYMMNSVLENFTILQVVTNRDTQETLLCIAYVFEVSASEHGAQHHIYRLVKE

[7] = Inhibition of TEAD in HEK293 cells expressing YAP; format: cell-based, Homo sapiens
HCT-116 [8] = assay: Antiproliferative activity against human HCT-116 cells incubated for 72 hrs; format: functional, cell-based; conditions: HCT-116, 72 h
BXPC-3 = assay: Antiproliferative activity against human BXPC-3 cells incubated for 48 hrs by MTT assay; format: functional, cell-based; conditions: BXPC-3, 48 h
ASPC1 = assay: Antiproliferative activity against human ASPC1 cells incubated for 48 hrs by MTT assay; format: functional, cell-based; conditions: ASPC1, 48 h
PANC-1 = assay: Antiproliferative activity against human PANC-1 cells incubated for 48 hrs by MTT assay; format: functional, cell-based; conditions: PANC-1, 48 h
MIA PaCa-2 = assay: Antiproliferative activity against human MIA PaCa-2 cells incubated for 48 hrs by MTT assay; format: functional, cell-based; conditions: MIA PaCa-2, 48 h
[9] = Antitumor activity against human MIA PaCa2 cells xenografted in BALB/c mouse assessed as tumor growth inhibition at 5 mg/kg, ip administered for every 2 days; format: functional; conditions: 48 h, time 2 day, read-out: TGI
SW1990 = assay: Antiproliferative activity against human SW1990 cells incubated for 48 hrs by MTT assay; format: functional, cell-based; conditions: SW1990, 48 h
SU.86.86 = assay: Antiproliferative activity against human SU-86-86 cells incubated for 48 hrs by MTT assay; format: functional, cell-based; conditions: SU.86.86, 48 h
HCT-116 [10] = assay: Antiproliferative activity against human HCT-116 cells incubated for 48 hrs by MTT assay; format: functional, cell-based; conditions: HCT-116, 48 h
MGC-803 = assay: Antiproliferative activity against human MGC-803 cells incubated for 48 hrs by MTT assay; format: functional, cell-based; conditions: MGC-803, 48 h
PC-3 = assay: Antiproliferative activity against human PC-3 cells incubated for 48 hrs by MTT assay; format: functional, cell-based; conditions: PC-3, 48 h
MCF7 = assay: Antiproliferative activity against human MCF7 cells incubated for 48 hrs by MTT assay; format: functional, cell-based; conditions: MCF7, 48 h
SGC-7901 = assay: Antiproliferative activity against human SGC-7901 cells incubated for 48 hrs by MTT assay; format: functional, cell-based; conditions: SGC-7901, 48 h
HGC-27 = assay: Antiproliferative activity against human HGC-27 cells incubated for 48 hrs by MTT assay; format: functional, cell-based; conditions: HGC-27, 48 h
MCF-10A = assay: Growth inhibition of human MCF-10A cells incubated for 48 hrs; format: functional
[11] = Inhibition of YAP (unknown origin)/TAZ-TEAD interaction (unknown origin); set-up: species or system Homo sapiens
[12] = Inhibition of GST-tagged human TEAD1 to human His6-tagged YAP2 protein-protein interaction incubated for 2 hrs by AlphaLisa method
SCC-9 [13] = assay: Antiproliferative activity against human SCC-9 cells incubated for 72 hrs by MTT assay; format: functional, cell-based; conditions: SCC-9, 72 h
SCC-15 = assay: Antiproliferative activity against human SCC-15 cells incubated for 72 hrs by MTT assay; format: functional, cell-based; conditions: SCC-15, 72 h
[14] = Inhibition of TAZ expressed in HEK293 cells incubated for 24 hrs by dual luciferase reporter assay; format: cell-based; conditions: Homo sapiens, HEK293, 24 h
HSC-3 = assay: Antiproliferative activity against human HSC-3 cells incubated for 72 hrs by MTT assay; format: functional, cell-based; conditions: HSC-3, 72 h
SCC-9 [15] = assay: Antitumor activity against human SCC9 cells xenografted in nude mouse assessed as tumor growth inhibition at 50 mg/kg, po administered every other day; format: functional; conditions: read-out: TGI
[16] = tested on: Lewis lung carcinoma cell line; assay: Antiproliferative activity against mouse Lewis lung carcinoma cell line incubated for 48 hrs by SRB assay; format: functional, cell-based
NCI-H1975 = assay: Antiproliferative activity against human NCI-H1975 cells incubated for 48 hrs by SRB assay; format: functional, cell-based; conditions: NCI-H1975, 48 h
NCI-H460 = assay: Antiproliferative activity against human NCI-H460 cells incubated for 48 hrs by SRB assay; format: functional, cell-based; conditions: NCI-H460, 48 h
MDA-MB-231 = assay: Antiproliferative activity against human MDA-MB-231 cells incubated for 72 hrs by SRB method; format: functional, cell-based; conditions: MDA-MB-231, 72 h
4T1 = assay: Antiproliferative activity against mouse 4T1 cells incubated for 72 hrs by SRB method; format: functional, cell-based; conditions: 4T1, 72 h

Structure (SMILES): CN1CCCC1CN1CCn2cc(-c3ccccc3)nc2[C@@H]1CC1CCCCC1 (some centres undefined)
half-life [1]: 2.4 h
IC50 [2]: 5100 nM
inhibition in vivo at 30 mg/kg/day [3]: 107%
IC50 [4]: 10400 nM

Structure (SMILES): COc1ccc(C(=O)O[C@H]2C=COC=C3[C@@H](O)[C@]45S[C@@H](C(=O)N4[C@@H]32)N(C)C5=O)cc1Oc1cc(C=O)ccc1O
IC50 (BXPC-3): < 2000 nM
IC50 (ASPC1): < 2000 nM
IC50 (PANC-1): < 2000 nM
IC50 (MIA PaCa-2): < 2000 nM
inhibition in vivo at 5 mg/kg [9]: 71%
IC50 (SW1990): < 4000 nM
IC50 (SU.86.86): < 4000 nM

Structure (SMILES): C[C@H]1[C@H](OC(=O)CCC(=O)O)O[C@@H]2O[C@@]3(C)CC[C@H]4[C@H](C)CC[C@@H]1[C@@]24OO3 [ARTESUNATE]
IC50 [16]: 11000 nM
IC50 (NCI-H1975): 4020 nM
IC50 (NCI-H460): 16100 nM

Structure (SMILES): O=c1cc(-c2ccc(O)c(O)c2)oc2cc(O)cc(O)c12 [LUTEOLIN]
IC50 (MDA-MB-231): 19200 nM
IC50 (4T1): 6980 nM

The next lines start with results.

IC50 [5]: 21400 nM
IC50 [6]: 1300 nM
IC50 [7]: 2100 nM
IC50 (HCT-116 [8]): 27900 nM
Structure (SMILES): CCOc1ccc(CN2CCCC(C(=O)c3cccc(C(F)(F)F)c3)C2)cc1CO (centres undefined)

IC50 (HCT-116 [10]): 700 nM
IC50 (MGC-803): 360 nM
IC50 (PC-3): 1040 nM
IC50 (MCF7): 810 nM
IC50 (SGC-7901): 380 nM
Structure (SMILES): COc1ccc(S(=O)(=O)N(Cc2nc(C)c3ccccc3n2)c2cc(OC)c(OC)c(OC)c2)cc1
IC50 (HGC-27): 460 nM

IC50 [11]: 12700 nM
Structure (SMILES): COc1ccc(CCNC(=O)C2=CS(=O)(=O)c3ccccc32)cc1
GI50 (MCF-10A): 3200 nM

IC50 [12]: 25400 nM
Structure (SMILES): COc1cc(/C=N/N(CCO)C2=NS(=O)(=O)c3ccccc32)ccc1O

IC50 [14]: < 300 nM
Structure (SMILES): CC(C)[C@H](C(=O)Nc1ccc(C(=O)NO)cc1)c1ccccc1 [AR-42]
IC50 (SCC-9 [13]): 240 nM
IC50 (SCC-15): 350 nM
IC50 (HSC-3): 800 nM
inhibition in vivo at 50 mg/kg (SCC-9 [15]): 85%
